US4029731A, “Aminophenyltetralin compounds” (Pfizer Inc., priority 1976, dated 1977)
Counter-ions that a name gives are not always drawn.

Legend:
Assay type in all cases: in vivo
[1] = tested on: reserpine-induced hypothermia in the mouse; assay: Reversal of reserpine-induced hypothermia in the mouse; conditions: 32 mg./kg. i.p., 2 hours after dosing; reserpine 2 mg./kg. s.c. 18 hours before; saline control 25.1° ± 3.2° C.
Procedure: The 1-amino-4-phenyltetraline final products of Examples III-IX were tested for antidepressant activity by measuring their ability to reverse reserpine-induced hypothermia in the mouse according to the procedure described by B.M. Askew in Life Science, Vol. 2, p. 725 (1963). In this test, all the animals were individually housed in plastic chambers with a cardboard bottom. The mice were injected with reserpine subcutaneously at 2 mg./kg. and retained at an ambient temperature of 20° C. for a period of 18 hours. At this point, their rectal temperatures were initially ascertained and immediately thereafter they were divided into groups of 5-20 animals for testing purposes. Each group then received either saline as a control or the compound to be tested at a dose level of 32 mg./kg., administered intraperitoneally, and the resulting rectal temperatures were measured two hours later. In the table below, the entries are reported as mean rectal temperatures for each compound at the 2-hour mark, together with the number of animals tested in each particular group.

[2] = tested on: rats; assay: Antidepressant and psychomotor stimulant activity in rats, intraperitoneal; conditions: i.p., 3.2 mg./kg. to 32 mg./kg.
From the text: (§1) As previously indicated, the 1-amino-4-phenyltetralin compounds of this invention (in the form of their trans-isomers) are all readily adapted to therapeutic use as psychotropic agents, particularly in view of their potent antidepressant and psychomotor stimulant properties. […] The other compounds of this invention also cause similar results. Furthermore, all the herein described trans-isomers of this invention can be administered as psychotropic agents by either the oral or parenteral routes of administration, for the present purposes at hand, without causing any significant untoward pharmacological side effects to occur in the subject to whom they are so administered. In general, these psychotropic compounds are normally administered in dosages ranging from about 0.3 mg., to about 10 mg. per kg. of body weight per day, although variations will necessarily occur depending upon the weight and conditions of the subject being treated and the particular route of administration chosen.

[3] = Toxic / untoward side effects on administration; conditions: rats, i.p., 3.2 mg./kg. to 32 mg./kg.
From the text: as §1

[4] = tested on: non-discriminated (Sidman) avoidance behavior rats; assay: Non-discriminated (Sidman) avoidance behavior in rats; conditions: 5 mg./kg. and 10 mg./kg. i.p.
From the text: Eight (8) mature male rats were trained in Lehigh Valley automatic multiple-operant conditioning chambers to avoid a 2.0 mA electric shock that would last for 0.75 second, or terminate sooner if the rat lever became activated during the shock. In these tests, lever presses postponed the onset of shock for an initial period of 30 seconds, while only 10 seconds elapsed between shocks if no intervening response was elicited. The rats were run for a 40-minute control period before receiving the drug and then for approximately 2.5 hours after each treatment.

[5] = tested on: spontaneous motor activity in mice; assay: Spontaneous motor activity in mice (actophotometer activity counts)
Procedure: A total of seven mice was employed at each dose level tested (viz., at 0.32, 1.0, 3.2, 10 and 32 mg./kg., i.p., respectively) and these mice were separated one to an activity cage. After an initial one-half hour exposure period (for acclimation purposes), each animal in the cage was treated with a sample of the drug intraperitoneally and immediately thereafter returned to said cage, with activity counts every one-half hour being recorded from that point on.

[6] = tested on: motor activity in mice; avoidance behavior in rats; assay: Psychomotor stimulant activity (motor activity in mice; Sidman avoidance in rats); conditions: as the hydrochloride salt
From the text: On the other hand, the activity of the compounds of the present invention, as psychomotor stimulants, is based on a variety of tests, including (1) a study of their motor activity in mice and (2) a measurement of their ability to influence the loss of avoidance behavior in rats trained on a non-discriminated (Sidman) avoidance schedule.

SMILES: CN[C@@H]1CC[C@@H](c2ccccc2)c2ccccc21 [Trans-d-isomer of Example III, trans-d-N-methyl-4-phenyl-1,2,3,4-tetrahydro-1-naphthylamine as the hydrochloride]
- Mean Rectal Temperature, Temp. (° C.) ±S.D. [1]: 34.1 ± 0.7 °C
- antidepressant and psychomotor stimulant activity [2]: marked antidepressant and psychomotor stimulant activity
- signs of toxic side effects [3]: without showing any substantial signs of toxic side effects
- duration of drug effect after administration [4]: approximately one and a half
- start of drug effect [4]: ≤ 20 min
- increase of response rates over normal pre-drug control levels ([4]; four out of eight rats): 2-6 times
- response rates ([4]; four out of eight rats): moderate to marked increase in response rates
- increase of response rates over pre-drug control levels ([4]; two other rats): about 1.5 times
- duration of effect compared with d-amphetamine sulfate ([5]; 10 mg./kg. i.p. vs d-amphetamine sulfate at 3.2 mg./kg.): even more prolonged in its effect than did that of d-amphetamine sulfate
- effect on activity counts compared with d-amphetamine sulfate ([5]; 10 mg/kg. i.p. vs d-amphetamine sulfate at 3.2 mg./kg.): more pronounced than that of d-amphetamine sulfate
- effect on activity counts compared with methylphenidate ([5]; 10 mg/kg. i.p. vs methylphenidate at 10 mg./kg.): surpassing even that of methylphenidate
- activity counts ([5]; 10 mg/kg.(i.p.), 30-60 minutes after treatment): markedly elevated the activity counts
- duration of motor stimulant activity [6]: long duration of motor stimulant activity
- onset of action [6]: rapid onset of action
- potency as psychomotor stimulant compared with methylphenidate [6]: comparable in potency to methylphenidate
